Reference: article PMC5283573 (Biochemistry, 2016)

Tests used:
[1] = target: T1, imidazole glycerol phosphate synthase (IGPS), HisH-HisF heterodimer (Thermotoga maritima, UniProt Q9X0C6+Q9X0C8); assay: glutaminase assay, coupled glutamate dehydrogenase/APAD; type: biochemical
[2] = target: T1, imidazole glycerol phosphate synthase (IGPS), HisH-HisF heterodimer; assay: isothermal titration calorimetry; type: binding

Ki [1]: 900 ± 70 µM
Kd [2]: 1500 ± 300 µM
SMILES: CCC(CNCCO)Nc1nc2c(c(=O)n(C)c(=O)n2C)n1Cc1ccccc1 (centres unmarked) [compound 3, 7-benzyl-8-[(1-{[(2-hydroxyethyl)amino]methyl}propyl)amino]-1,3-dimethyl-2,3,6,7-tetrahydro-1H-2,6-purinedione]
